Results published in PubChem BioAssay (NCI).
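Values below derive from 48-hour exposures of cells grown in 96-well plates, with endpoints linearly interpolated between the two concentrations bracketing the appropriate inhibition level. At the TGI there is no net growth.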

Columns and labels:
Assay in all cases: NCI tumour cell line growth inhibition, 48 h
MDA-MB-231 breast = test system: MDA-MB-231 breast
OVCAR-4 ovarian = test system: OVCAR-4 ovarian
RPMI-8226 leukemia = test system: RPMI-8226 leukemia
KM12 colon = test system: KM12 colon
HOP-92 NSCLC = test system: HOP-92 NSCLC
OVCAR-5 ovarian = test system: OVCAR-5 ovarian
SK-MEL-2 melanoma = test system: SK-MEL-2 melanoma
UACC-257 melanoma = test system: UACC-257 melanoma
SNB-19 CNS = test system: SNB-19 CNS
OVCAR-8 ovarian = test system: OVCAR-8 ovarian
PC-3 prostate = test system: PC-3 prostate
NCI-H460 lung = test system: NCI-H460 lung
HT29 colon = test system: HT29 colon
MDA-MB-435 = test system: MDA-MB-435
SK-OV-3 ovarian = test system: SK-OV-3 ovarian
HCT-15 colon = test system: HCT-15 colon
SW-620 colon = test system: SW-620 colon
A549 NSCLC = test system: A549 NSCLC
SF-268 CNS = test system: SF-268 CNS
UO-31 renal = test system: UO-31 renal
RXF 393 renal = test system: RXF 393 renal
MOLT-4 leukemia = test system: MOLT-4 leukemia
ACHN renal = test system: ACHN renal
CAKI-1 renal = test system: CAKI-1 renal
DU-145 prostate = test system: DU-145 prostate
SN12C renal = test system: SN12C renal
TK-10 renal = test system: TK-10 renal
NCI-H23 lung = test system: NCI-H23 lung
HOP-62 NSCLC = test system: HOP-62 NSCLC
SNB-75 CNS = test system: SNB-75 CNS
NCI-H226 lung = test system: NCI-H226 lung
HCC-2998 colon = test system: HCC-2998 colon
OVCAR-3 ovarian = test system: OVCAR-3 ovarian
U251 CNS = test system: U251 CNS
MDA-N = test system: MDA-N
T-47D breast = test system: T-47D breast
LOX IMVI melanoma = test system: LOX IMVI melanoma
SK-MEL-28 melanoma = test system: SK-MEL-28 melanoma
786-0 renal = test system: 786-0 renal
NCI-H522 lung = test system: NCI-H522 lung
HCT-116 colon = test system: HCT-116 colon
HL-60(TB) leukemia = test system: HL-60(TB) leukemia
COLO 205 colon = test system: COLO 205 colon
MCF7 breast = test system: MCF7 breast
SF-539 CNS = test system: SF-539 CNS
BT-549 breast = test system: BT-549 breast
HS 578T breast = test system: HS 578T breast
SK-MEL-5 melanoma = test system: SK-MEL-5 melanoma
SF-295 CNS = test system: SF-295 CNS
M14 melanoma = test system: M14 melanoma
UACC-62 melanoma = test system: UACC-62 melanoma
MALME-3M melanoma = test system: MALME-3M melanoma
EKVX NSCLC = test system: EKVX NSCLC
SR leukemia = test system: SR leukemia
NCI/ADR-RES ovarian = test system: NCI/ADR-RES ovarian
K-562 leukemia = test system: K-562 leukemia
IGROV1 ovarian = test system: IGROV1 ovarian
CCRF-CEM leukemia = test system: CCRF-CEM leukemia
A498 renal = test system: A498 renal

SMILES: O=C(Nc1ccc2ncccc2c1)c1cc2c(cc1Cl)Sc1nccn1S2(=O)=O
- TGI (MDA-MB-231 breast): 45.1 µM
- TGI (OVCAR-4 ovarian): 73 µM
- TGI (RPMI-8226 leukemia): 41 µM
- TGI (KM12 colon): 21.7 µM
- TGI (HOP-92 NSCLC): 76.7 µM
- TGI (OVCAR-5 ovarian): 39.6 µM
- TGI (SK-MEL-2 melanoma): 33.3 µM
- TGI (UACC-257 melanoma): 47.8 µM
- TGI (SNB-19 CNS): 34.6 µM
- TGI (OVCAR-8 ovarian): 43.7 µM
- TGI (PC-3 prostate): > 100 µM
- TGI (NCI-H460 lung): 30.6 µM
- TGI (HT29 colon): 31.3 µM
- TGI (MDA-MB-435): 17.1 µM
- TGI (SK-OV-3 ovarian): 62.5 µM
- TGI (HCT-15 colon): 24.1 µM
- TGI (SW-620 colon): 34.1 µM
- TGI (A549 NSCLC): 40.6 µM
- TGI (SF-268 CNS): 48.4 µM
- TGI (UO-31 renal): 39.8 µM
- TGI (RXF 393 renal): 33.6 µM
- TGI (MOLT-4 leukemia): 45.5 µM
- TGI (ACHN renal): 87.6 µM
- TGI (CAKI-1 renal): 79.5 µM
- TGI (DU-145 prostate): 31 µM
- TGI (SN12C renal): 33.3 µM
- TGI (TK-10 renal): 69.4 µM
- TGI (NCI-H23 lung): 32.5 µM
- TGI (HOP-62 NSCLC): 39.8 µM
- TGI (SNB-75 CNS): 30.7 µM
- TGI (NCI-H226 lung): 35.4 µM
- TGI (HCC-2998 colon): 27.8 µM
- TGI (OVCAR-3 ovarian): 47.6 µM
- TGI (U251 CNS): 26.4 µM
- TGI (MDA-N): 18.3 µM
- TGI (T-47D breast): 45.4 µM
- TGI (LOX IMVI melanoma): 34.2 µM
- TGI (SK-MEL-28 melanoma): 42 µM
- TGI (786-0 renal): 27.9 µM
- TGI (NCI-H522 lung): 24.5 µM
- TGI (HCT-116 colon): 25.4 µM
- TGI (HL-60(TB) leukemia): 26.6 µM
- TGI (COLO 205 colon): 37.3 µM
- TGI (MCF7 breast): 35.2 µM
- TGI (SF-539 CNS): 57.4 µM
- TGI (BT-549 breast): 41.2 µM
- TGI (HS 578T breast): > 100 µM
- TGI (SK-MEL-5 melanoma): 28.8 µM
- TGI (SF-295 CNS): 42 µM
- TGI (M14 melanoma): 29.8 µM
- TGI (UACC-62 melanoma): 32.7 µM
- TGI (MALME-3M melanoma): 35.1 µM
- TGI (EKVX NSCLC): 39.1 µM
- TGI (SR leukemia): 45.2 µM
- TGI (NCI/ADR-RES ovarian): 47.6 µM
- TGI (K-562 leukemia): 47 µM
- TGI (IGROV1 ovarian): 29.3 µM

SMILES: CC(=O)OC1CCC2(C)C(CCC3C4CC=C(C5(C)OCCO5)C4(C)CCC32)C1 (stereo not drawn)
- TGI (MDA-MB-231 breast): > 100 µM
- TGI (OVCAR-4 ovarian): 61 µM
- TGI (RPMI-8226 leukemia): 34.1 µM
- TGI (KM12 colon): 67.4 µM
- TGI (OVCAR-5 ovarian): 44.7 µM
- TGI (SK-MEL-2 melanoma): 37.4 µM
- TGI (UACC-257 melanoma): 40.2 µM
- TGI (SNB-19 CNS): > 100 µM
- TGI (OVCAR-8 ovarian): 48.8 µM
- TGI (PC-3 prostate): 54.2 µM
- TGI (NCI-H460 lung): 47.8 µM
- TGI (CCRF-CEM leukemia): 38.4 µM
- TGI (HT29 colon): 38.3 µM
- TGI (MDA-MB-435): 47.9 µM
- TGI (SK-OV-3 ovarian): > 100 µM
- TGI (HCT-15 colon): 80.6 µM
- TGI (SW-620 colon): 45.6 µM
- TGI (A549 NSCLC): > 100 µM
- TGI (SF-268 CNS): > 100 µM
- TGI (UO-31 renal): 62 µM
- TGI (RXF 393 renal): 40.3 µM
- TGI (MOLT-4 leukemia): 65.5 µM
- TGI (ACHN renal): > 100 µM
- TGI (CAKI-1 renal): > 100 µM
- TGI (DU-145 prostate): > 100 µM
- TGI (SN12C renal): 44.4 µM
- TGI (TK-10 renal): > 100 µM
- TGI (NCI-H23 lung): 66.6 µM
- TGI (HOP-62 NSCLC): 44.1 µM
- TGI (SNB-75 CNS): 73.7 µM
- TGI (NCI-H226 lung): 66.8 µM
- TGI (OVCAR-3 ovarian): 44 µM
- TGI (U251 CNS): 39.4 µM
- TGI (MDA-N): 44 µM
- TGI (T-47D breast): > 100 µM
- TGI (LOX IMVI melanoma): 32.8 µM
- TGI (SK-MEL-28 melanoma): 43 µM
- TGI (786-0 renal): 77.4 µM
- TGI (HCT-116 colon): 45.3 µM
- TGI (HL-60(TB) leukemia): 48.8 µM
- TGI (COLO 205 colon): 32.9 µM
- TGI (MCF7 breast): 53.9 µM
- TGI (SF-539 CNS): 42.7 µM
- TGI (BT-549 breast): 45.8 µM
- TGI (HS 578T breast): 60.1 µM
- TGI (SK-MEL-5 melanoma): 28.9 µM
- TGI (SF-295 CNS): 57.2 µM
- TGI (M14 melanoma): 52.8 µM
- TGI (UACC-62 melanoma): 53.1 µM
- TGI (MALME-3M melanoma): 53.4 µM
- TGI (EKVX NSCLC): 44.1 µM
- TGI (SR leukemia): 54.2 µM
- TGI (A498 renal): 61.8 µM
- TGI (NCI/ADR-RES ovarian): 46 µM
- TGI (K-562 leukemia): > 100 µM
- TGI (IGROV1 ovarian): 70.4 µM
